The target in this assay is T1, PAF receptor (vital human blood platelets) (Homo sapiens, UniProt P25105).
T1 construct: endogenous in cells; host or cells: vital human blood platelets (thrombocytes) from blood samples of healthy donors, purified on Sepharose CL-2B
Nature of the assay: [3H]PAF receptor binding to vital human blood platelets. Particulars: [3H]PAF 30 pmolar, 90 minutes, ambient temperature, Ki calculated from IC50. How it is done: [^3 H]PAF receptor binding to vital human blood platelets
This experiment determined the competitive interaction of the test substances (in this case PAF-antagonists) with the known interaction of the radioligand [^3 H]PAF to the same receptor.
The bonding studies were carried out on vital human thrombocytes. Blood samples from healthy donors were diluted with ACD buffer and centrifuged (15 minutes, 160×g). The platelet-rich plasma was purified by chromatography on Sepharose CL-2B (for eluting: HEPES buffer, pH 7.4, 20° C.).
Defined quantities (e.g., 800 μl) of the platelet suspension were incubated for 90 minutes at ambient temperature with:
a) a 30 pmolar [^3 H]PAF solution diluted with buffer;
b) a 30 pmolar [^3 H]PAF solution which simultaneously contains a μmolar (non-labelled) PAF solution; and
c) a 30 pmolar [^3 H]PAF solution and the solutions of the test substances (different concentrations).
Incubation a) was used to determine total binding. Incubation b) was used to determine non-specific binding.
The reaction was stopped by vacuum filtering. The filters with the blood platelets were mixed with scintillation liquid and the residual radioactivity was measured in a counter. The specific binding was obtained from the total binding minus the non-specific binding. […]

T1 sequence (P25105 whole entry): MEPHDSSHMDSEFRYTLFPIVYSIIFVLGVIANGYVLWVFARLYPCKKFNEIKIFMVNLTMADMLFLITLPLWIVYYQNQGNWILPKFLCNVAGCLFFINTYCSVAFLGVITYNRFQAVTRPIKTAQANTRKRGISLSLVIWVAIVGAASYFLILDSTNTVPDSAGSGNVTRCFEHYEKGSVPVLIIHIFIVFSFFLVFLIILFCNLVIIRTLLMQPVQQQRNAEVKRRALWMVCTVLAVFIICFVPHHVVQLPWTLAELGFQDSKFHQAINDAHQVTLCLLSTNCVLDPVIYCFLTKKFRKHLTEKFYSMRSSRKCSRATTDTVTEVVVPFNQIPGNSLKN

With `Cc1nnc2n1-c1sc3c(c1C(c1ccc(CCc4ccc(C(F)(F)F)cc4)cc1)=NC2C)CCC3` (racemic) [Compound 1], the Ki is 0.79 nM. The value for `Cc1nnc2n1-c1sc3c(c1C(c1ccc(CCc4ccc(C(F)(F)F)cc4)cc1)=N[C@H]2C)CCC3` [Compound 2] was 0.47 nM.

Source of the values: patent US5185442A, “New diazepines substituted in the 6-position, processes for their preparation and their use as pharmaceutical compositions” (Boehringer Ingelheim KG, priority 1991, dated 1993).
